Key:
[1] = tested on: normal human melanocytes (NHMs); test: Accelerated senescence induced in vitro by a chronic H2O2 stress, viability by Alamar Blue; type: cell-based; conditions: for % relative to the control / average fluorescence: Alamar Blue on D7
Method: 1-C-1. Protocol for accelerated senescence induced in vitro by a chronic H2O2 stress:
(According to O. Toussaint, E. E. Medrano and T. von Zglinicki, Experimental Gerontology 2000, 35, 927-945).
The normal human melanocytes (NHMs) were inoculated at D0 at the density of 0.8×10^4 cells/cm^2. After adhesion of the cells (3 h) the active agent studied was added to the culture medium. H2O2 (250 μM) was added to the culture medium over 1 hour, at D1, D2 and D3. In addition, the culture medium was renewed every two days without addition of stress. On D7, the number of viable cells was measured using Alamar Blue (UP669413 UPTIMA, Interchim) according to the instructions of the supplier.

[2] = tested on: normal human melanocytes (NHMs); test: Reactive oxygen species (ROS) generated by an H2O2 stress in cultured normal human melanocytes; type: cell-based; conditions: NHM pretreated 12 h/18 h, 250 μM H2O2, fluorescence after 15 min; FIG. 1
Method: 1-A-1. Protocol for measuring the reactive oxygen species (ROS) generated by an H2O2 stress in cultured normal human melanocytes (NHMs) The normal human melanocytes (NHMs) were inoculated at D0 at the density of 4×10^4 cells/cm^2. At D1, the culture medium was replaced with the 10 μM solution of 6-carboxy-2',7'-dichlorodihydrofluorescein diacetate, di[acetoxymethyl ester] in PBS (H2DCFDA, C2938, Molecular Probes). After 20 min the H2DCFDA solution was replaced with the culture medium. The NHMs were left for 30 min before adding the H2O2 solution (250 μM). The fluorescence was measured after 15 min in a fluoroscan (excitation: 485 nm, emission: 538 nm). The compounds studied were used depending on their properties (concentration, preincubation time). N-Acetylcysteine ([…], Sigma) was used as a reference molecule. The melanocytes were pretreated, 12 h/18 h at 37° C., with the compound studied in the culture medium, before being brought into contact for 20 minutes with H2DCFDA (10 μM in PBS). […] The fluorescence was measured after 15 min in a fluoroscan (excitation: 485 nm, emission: 538 nm). The results represent the crude fluorescence data, from which the autofluorescence values of “blank” cells, expressed in fluorescence units (fu), obtained during a representative experiment, have been deducted.

[3] = (no treatment, NAC, EA), chronic H2O2 250 μM at D1, D2, D3

Row | Compound | % relative to the control ([1]; (Control, NAC, EA)) [%] | average fluorescence ([1]; (Control, NAC, EA)) | % relative to the control [1, 3] [%] | average fluorescence [1, 3] | reactive oxygen species induced by H2O2 (fluorescence, H2DCFDA) [2] | viability after accelerated senescence induced by chronic H2O2 stress ([1]; NHM, H2O2 250 μM at D1, D2, D3, read on D7, FIG. 3)
1 | CC(=O)N[C@@H](CS)C(=O)O [NAC, N-Acetylcysteine, reference compound] | 106 | 8056.00 | 38 | 2869.00 |  | 
2 | O=c1oc2c(O)c(O)cc3c(=O)oc4c(O)c(O)cc1c4c23 [ellagic acid, 2,3,7,8-tetrahydroxy(1)benzopyrano(5,4,3-CDE)(1)benzopyran-5,10-dione] | 97 | 7343.67 | 39 | 2934.00 | decrease of the reactive oxygen species | significant increase in viability

Reference: patent US8895037B2, “Administation of ellagic acid for the treatment of canities” (L'Oreal, priority 2006, dated 2014)
